Data: ChEMBL document CHEMBL1135542, “Successful virtual screening for novel inhibitors of human carbonic anhydrase: strategy and experimental confirmation” (J Med Chem, 2002)

What was measured:
Carbonic anhydrase 2 [1] = biological target: T1, Carbonic anhydrase 2 (Homo sapiens, UniProt P00918)
Carbonic anhydrase 2 [2] = biological target: T1, Carbonic anhydrase 2; remark: listed apart in the source
Carbonic anhydrase 2 [3] = biological target: T1, Carbonic anhydrase 2; remark: listed apart in the source

Structure (SMILES)	Kd (Carbonic anhydrase 2 [1]) [nM]	IC50 (Carbonic anhydrase 2 [2]) [nM]	Ki (Carbonic anhydrase 2 [3]) [nM]
COCCOCCN(CCOC)c1cc2cc(S(N)(=O)=O)sc2s1		2.8	1.58
CCCCCCCCCS(=O)(=O)C(F)S(N)(=O)=O (configuration not stated)		3	
CN(C)S(=O)(=O)Oc1ccc2nc(S(N)(=O)=O)sc2c1		1.2	
CC1(C)O[C@H]2[C@@H]3OS(=O)(=O)O[C@@H]3CC[C@@]2(COS(N)(=O)=O)O1		130	
CCN[C@H]1CN(CCCCOC)S(=O)(=O)c2sc(S(N)(=O)=O)cc21	0.13	3.2	
CC(C)(C)C(=O)Oc1ccc2sc(S(N)(=O)=O)cc2c1		2.6	
NS(=O)(=O)c1cc2cc(N3CCSCC3)sc2s1		2.6	0.44
NS(=O)(=O)c1cc2cc(N3CCOCC3)sc2s1		3	1.1
NS(=O)(=O)OCCOc1ccc(-n2ccnc2)cc1			7
CN(C)Cc1cc(S(=O)(=O)c2ccc(S(N)(=O)=O)s2)ccc1O		0.7	
N[C@@H](Cc1ccccc1)C(=O)NCCOCCOCCNC(=O)c1ccc(S(N)(=O)=O)cc1 [PHENYLALANYLAMINODI(ETHYLOXY)ETHYL BENZENESULFONAMIDEAMINOCARBONYLBENZENESULFONAMIDE]	14		

Continued, in another order:

Kd (Carbonic anhydrase 2 [1]) [nM]	Structure (SMILES)	IC50 (Carbonic anhydrase 2 [2]) [nM]	Ki (Carbonic anhydrase 2 [3]) [nM]
43	NC(=O)NCCOCCOCCNC(=O)c1ccc(S(N)(=O)=O)cc1		
93000	CN(C)c1cccc2c(S(N)(=O)=O)cccc12		
